In ChEMBL document CHEMBL4831514, “Novel betulin dicarboxylic acid ester derivatives as potent antiviral agents: Design, synthesis, biological evaluation, structure-activity relationship and in-silico study” (Eur J Med Chem, 2021):

Experiments:
Influenza A virus [1] = test: (§1) Antiviral activity against Influenza A virus H1N1 (A/PR/8/34) infected in MDCK cells assessed as reduction in virus titer treated 1 hr post viral infection followed by replacement with fresh medium with compounds and measured after 72 hrs by MTT assay; type: functional, organism-based; conditions: H1N1 A/PR/8/34, MDCK
[2] = as §1, with “Selectivity index, ratio of CC50 for cytotoxicity against dog MDCK cells to EC50 for antiviral” for “Antiviral”; type: toxicity, cell-based; conditions: read-out: Selectivity Index
Influenza A virus [3] = test: as §1, with “Potency index, ratio of oseltamivir EC50 to test compound EC50 for antiviral” for “Antiviral”; type: functional

Row | Structure (SMILES) | EC50 (Influenza A virus [1]) [µM] | selectivity ratio at 72 h [2] | Ratio EC50 (Influenza A virus [3])
1 | C#CC1(NC(=O)/C(C)=C/C(=O)OC[C@]23CC[C@@H](C(=C)C)[C@@H]2[C@H]2CC[C@@H]4[C@@]5(C)CC[C@H](O)C(C)(C)[C@@H]5CC[C@@]4(C)[C@]2(C)CC3)CCCCC1 | 27.2 | 2 | 3
2 | C=C(C)[C@@H]1CC[C@]2(COC(=O)CSCC(=O)O)CC[C@]3(C)[C@H](CC[C@@H]4[C@@]5(C)CC[C@H](O)C(C)(C)[C@@H]5CC[C@]43C)[C@@H]12 | 21.1 | 2 | 3
3 | CCOC(=O)C1=C[C@@H](OC(CC)CC)[C@H](NC(C)=O)[C@@H](N)C1 [OSELTAMIVIR] | 80.1 | 98.2 | –
